Assay results reported in US4260603A, “Sterol glycoside with activity as prostaglandin synthetase inhibitor” (priority 1979, dated 1981).
Converted amounts (≈) assume the structure as drawn.

Tests used:
[1] = tested on: arthritis of rats caused by erysipeloid (strain T 28); test: Erysipeloid arthritis of rats, evaluation of aorta thrombes; type: in vivo, Male wistar rats; details: 5 mg/kg i.p., 5 times per week from infection day; comparison group 2.80
From the text: When comparing arthritis based on experimental erysipeloid of for example rats with human rheumatic arthritis an extensive correspondence of the morphological changes can be observed. The tests had been made according to the publication of Schulz et al. Beitr. Path. 154, 1-26, 27-51 (1975). The arthritis of rats caused by erysipeloid can be reproduced with nearly 100 percent effectiveness with a single injection. In case of arthritis caused by erysipeloid always more than 6 joints of the limbs are transformed, namely big and small joints of the limbs in the same manner.
In the test of the compounds the following parameters of the manifestation phase had been used for estimating the activity of the compound.
With rats fibrine-rich thrombes occur about 6th to 11th day of the intima of the aorta. The largest space covered is about 8th day.
Male wistar rats with a body weight of 150 to 180 g were used for the tests. The animals had been kept in single cages and got a rat standard diet (Ssniff R) and water ad libitum.
The infection was carried out with the erysipeloid strain T 28. The dosage was 2 ml s.c. (about 100-200 millions germs). The compounds to be tested had been suspended in sterile saline solution and had been injected i.p. in a dosage of 5 mg/kg body weight. The treatment was 5 times per week from infection day to end of test or death of animal.

[2] = Toxicity on administration over a long period of time; type: in vivo, rate, mice rabbits, dogs and primates; details: daily doses of 100 to 200 mg/kg of body weight over a long period of time
[3] = Acute toxicity by oral administration; type: in vivo, rate, mice rabbits, dogs and primates; details: doses of 1 to 2 grams/kg of body weight
physchem = type: physicochemical; details: water
From the text: According to the described process there can also be produced solutions of other sterol disaccharides. […] This solubility is above the preferred individual doses employed of the compounds.

C[C@@H]1CC[C@@]2(OC1)O[C@H]1C[C@H]3[C@@H]4CC=C5C[C@@H](O[C@@H]6O[C@H](CO)[C@@H](O)[C@H](O)[C@H]6O)CC[C@]5(C)[C@H]4CC[C@]3(C)[C@H]1[C@@H]2C [diosgeninglucoside, diosgenin-3-β-D-Glucoside]
evaluation of aorta thrombes (value) [1]: 1.33

C[C@@H]1CC[C@@]2(OC1)O[C@H]1C[C@H]3[C@@H]4CC[C@H]5C[C@@H](O[C@@H]6O[C@H](CO)[C@@H](O)[C@H](O)[C@H]6O)CC[C@]5(C)[C@H]4CC(=O)[C@]3(C)[C@H]1[C@@H]2C [hecogeninglucoside, hecogenin β-D-glucoside]
evaluation of aorta thrombes (value) [1]: 1.38

CC[C@H](CC[C@@H](C)[C@H]1CC[C@H]2[C@@H]3CC=C4C[C@@H](O[C@@H]5O[C@H](CO)[C@@H](O)[C@H](O)[C@H]5O)CC[C@]4(C)[C@H]3CC[C@]12C)C(C)C [sitosterol-β-D-glucoside, Sitosterol-β-D-Glucoside]
evaluation of aorta thrombes (value) [1]: 2.00 | tolerance [2]: good | acute toxicity [3]: no toxic effects

CC[C@H](CC[C@@H](C)[C@H]1CC[C@H]2[C@@H]3CC=C4C[C@@H](O[C@@H]5O[C@H](CO)[C@@H](O[C@@H]6O[C@H](CO)[C@@H](O)[C@H](O)[C@H]6O)[C@H](O)[C@H]5O)CC[C@]4(C)[C@H]3CC[C@]12C)C(C)C [β-D-cellobioside of sitosterol]
solubility (physchem): 750 µg/mL (≈ 1010 µM)

CC[C@H](CC[C@@H](C)[C@H]1CC[C@H]2[C@@H]3CC=C4C[C@@H](O[C@@H]5O[C@H](CO)[C@@H](O[C@@H]6O[C@H](CO)[C@H](O)[C@H](O)[C@H]6O)[C@H](O)[C@H]5O)CC[C@]4(C)[C@H]3CC[C@]12C)C(C)C [β-D-lactoside of sitosterol]
solubility (physchem): 210 µg/mL (≈ 284 µM)
